In PubChem BioAssay (NCI):
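How tested: cells in 96-well plates exposed to compound for 48 hours at five concentrations. Abbreviation: GI50, concentration required for 50% inhibition of growth. TGI denotes the concentration required for complete inhibition of growth.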

Legend:
Test in all cases: NCI tumour cell line growth inhibition, 48 h
RPMI-8226 leukemia = system: RPMI-8226 leukemia
U251 CNS = system: U251 CNS
LOX IMVI melanoma = system: LOX IMVI melanoma
UACC-62 melanoma = system: UACC-62 melanoma
RXF 393 renal = system: RXF 393 renal
T-47D breast = system: T-47D breast
K-562 leukemia = system: K-562 leukemia
SF-295 CNS = system: SF-295 CNS
SF-539 CNS = system: SF-539 CNS
PC-3 prostate = system: PC-3 prostate

| Structure (SMILES) | GI50 (RPMI-8226 leukemia) | TGI (RPMI-8226 leukemia) | GI50 (U251 CNS) | TGI (U251 CNS) | GI50 (LOX IMVI melanoma) | TGI (LOX IMVI melanoma) | GI50 (UACC-62 melanoma) | TGI (UACC-62 melanoma) | GI50 (RXF 393 renal) | TGI (RXF 393 renal) | GI50 (T-47D breast) | TGI (T-47D breast) | GI50 (K-562 leukemia) | TGI (K-562 leukemia) | GI50 (SF-295 CNS) | TGI (SF-295 CNS) | GI50 (SF-539 CNS) | TGI (SF-539 CNS) | GI50 (PC-3 prostate) | TGI (PC-3 prostate) |
| --- | --- | --- | --- | --- | --- | --- | --- | --- | --- | --- | --- | --- | --- | --- | --- | --- | --- | --- | --- | --- |
| CCN1C(=O)N(CC)C2C1N=C(SC)N2/N=C/C=C/c1ccccc1OC (stereo not given) | 0.37 µM | 3.31 µM | 0.411 µM | > 33.1 µM | 0.564 µM | > 36.7 µM | 0.492 µM | > 40.4 µM | 0.376 µM | 35.3 µM | > 32.8 µM | > 58.8 µM | 0.361 µM | > 42.8 µM | 0.358 µM | > 37.4 µM | 0.315 µM | 1.69 µM | 0.47 µM | > 45.3 µM |
| COc1ccc2c(c1)-c1c(c3cc(OC)ccc3n(CCN(C)C)c1=O)C2=O | 0.445 µM | 1.97 µM | 0.443 µM | 6.77 µM | 0.658 µM | 1.85 µM | 3.11 µM | 9.73 µM | 1.59 µM | 7.23 µM | 3.23 µM | 11.4 µM | 0.28 µM | 3.09 µM | 0.714 µM | 2.99 µM | 1.99 µM | 8.58 µM | 1.49 µM | 8.88 µM |
| CCC(c1ccccc1)c1cc(C(C)(C)C)cc(C(C)(C)C)c1O (stereo not given) | – | 28.5 µM | – | 31.5 µM | – | 31.9 µM | – | 32.2 µM | – | 34.2 µM | – | 29.6 µM | – | 34 µM | – | 26.9 µM | – | 34.2 µM | – | 31.6 µM |
| Cc1c(-c2ccccn2)ccc2ccccc12 | – | 44.1 µM | – | > 100 µM | – | > 100 µM | – | > 100 µM | – | 93.2 µM | – | > 100 µM | – | > 100 µM | – | > 100 µM | – | > 100 µM | – | > 100 µM |
| CC(=O)c1c(C)c2cnc(Nc3ccc(N4CCNCC4)cn3)nc2n(C2CCCC2)c1=O | 0.268 µM | 32.1 µM | 4.25 µM | 20.3 µM | 1.46 µM | 19.7 µM | 11 µM | 23.9 µM | 2.87 µM | 17.2 µM | 14.5 µM | 32.6 µM | 3.34 µM | 19.7 µM | 12.9 µM | 28.9 µM | 14.1 µM | 28.3 µM | 1.74 µM | 20.8 µM |
| O=C1/C(=C/c2ccc([N+](=O)[O-])o2)Oc2ccc(Cl)cc21 | 1.37 µM | 4.72 µM | 2.02 µM | 4.52 µM | 1.59 µM | 3.19 µM | 1.58 µM | 3.41 µM | 1.65 µM | 3.6 µM | 1.67 µM | 5.02 µM | 0.438 µM | 2.17 µM | 11.5 µM | 49.1 µM | 1.82 µM | 3.97 µM | 1.92 µM | 5.08 µM |
| COC(=O)c1cc2cc(/C=C3/SC(=S)N(N(C(C)=O)C(C)=O)C3=O)oc2n1Cc1ccccc1 | 29.4 µM | > 100 µM | 12.8 µM | 30.8 µM | 13.9 µM | 31.4 µM | 14.4 µM | 33 µM | 22 µM | 56.7 µM | > 100 µM | > 100 µM | 22.7 µM | 53.7 µM | 13.2 µM | 52.4 µM | 20.4 µM | 39.3 µM | 37.8 µM | > 100 µM |
